From patent US20080038840A1, “Fluorescent Method And Compounds To Monitor Protein-Lipid Binding” (EUROPAEISCHES LABORATORIUM FUER MOLEKULARBIOLOGIE, priority 2004, published 2008)
“Also recorded” adds a separate entry of the source. Where two headings read alike, the source gives them in different places.

How the values were obtained:
[1] = Excitation and emission values of the fluorescent dyes in solvent; type: physicochemical; details: for Emission / Excitation: measured in methanol
Procedure: Some exemplary fluorescent dyes according to the invention together with values for excitation and emission are included in table 1. […] The excitation and emission values of the fluorescent dyes were measured in methanol, which simulates a protein-environment, thus yielding a shift of the emission to shorter wavelengths. For comparison, excitation and emission values for compound 10 were also measured in HEPES buffer (i.e. under initial, aqueous assay conditions). In this aqueous environment, the excitation is 620 nm and the emission is 688 nm compared to an emission at 662 nm in methanol.
(§1) The fluorescent dye will bind to any lipid-binding site of the protein, and the resulting increase in the hydrophobicity surrounding of the dye will result in an increase in the intensity of the fluorescence and a shift in the emission to a shorter wavelength. The emission-wavelength of a compound according to formula I in a hydrophobic surrounding can be determined in a non-aqueous solution such as methanol.

Water solubility = type: physicochemical
[2] = target: T1, peroxisomal matrix protein (SCP2) (Homo sapiens, UniProt P22307); experiment: Titration of fluorescent dye with peroxisomal matrix protein (SCP2); type: binding; details: dye 250 nM, FIG. 2b
T1 sequence (P22307 1-143 isoform P22307-2): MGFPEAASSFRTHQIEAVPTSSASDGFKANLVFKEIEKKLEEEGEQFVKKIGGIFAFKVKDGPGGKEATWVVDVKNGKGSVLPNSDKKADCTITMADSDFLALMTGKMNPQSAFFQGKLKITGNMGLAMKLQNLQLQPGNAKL
Excerpt: (§2) In a preferred embodiment of the invention, the assay for identifying lipid binding sites of proteins using the compounds according to formula I as defined above, comprises the steps of • a) dissolving a compound according to formula I as defined above in an aqueous solvent, • b) adding the protein to be tested for containing a lipid binding site, preferably in various concentrations, • c) measuring the intensity of fluorescence emission at the wavelength of maximal emission of the fluorescent dye.
as §1
(§3) For determining the submaximal concentration of dye binding to the protein, the latter was titrated until no further fluorescence increase at 620 nm could be detected.

[3] = target: bovine serum albumin (BSA) (Bos taurus, UniProt P02769); experiment: Titration of fluorescent dye with bovine serum albumin (BSA); type: binding; details: for wavelength of maximal emission intensity: FIG. 1a/1b
Chain of bovine serum albumin (BSA) (P02769 25-607): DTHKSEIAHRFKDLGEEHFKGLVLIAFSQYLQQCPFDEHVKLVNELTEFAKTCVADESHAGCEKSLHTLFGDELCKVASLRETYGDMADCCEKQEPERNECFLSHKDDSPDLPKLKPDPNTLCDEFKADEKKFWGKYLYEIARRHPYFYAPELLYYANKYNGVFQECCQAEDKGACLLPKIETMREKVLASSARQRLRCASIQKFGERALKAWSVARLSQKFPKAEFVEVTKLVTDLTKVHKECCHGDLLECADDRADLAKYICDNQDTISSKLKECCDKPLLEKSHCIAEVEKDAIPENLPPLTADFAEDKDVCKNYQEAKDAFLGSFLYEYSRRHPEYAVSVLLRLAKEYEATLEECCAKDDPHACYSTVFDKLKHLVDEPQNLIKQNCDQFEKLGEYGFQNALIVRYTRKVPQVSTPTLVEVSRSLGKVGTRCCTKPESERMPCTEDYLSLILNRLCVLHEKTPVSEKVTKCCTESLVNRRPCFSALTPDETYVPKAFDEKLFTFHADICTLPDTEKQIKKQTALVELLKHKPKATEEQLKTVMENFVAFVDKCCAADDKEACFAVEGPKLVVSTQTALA
Excerpt: as §2, §1, §3

cytochrome c = cytochrome c (Homo sapiens, UniProt P99999); details: whole cells; cited from earlier work
Chain of cytochrome c (P99999 whole entry, species assumed): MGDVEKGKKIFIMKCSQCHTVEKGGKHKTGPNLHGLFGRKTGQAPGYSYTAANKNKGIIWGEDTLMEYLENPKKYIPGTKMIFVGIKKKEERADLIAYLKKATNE

BSA = BSA (Bos taurus, UniProt P02769)
Chain of BSA (P02769 25-607): as the sequence (P02769 25-607) above
Procedure: Depending on the strength of the binding of the ligand to the lipid binding site of the protein, the ligand releases the fluorescent dye from the hydrophobic lipid binding site. This can be measured by a decrease of the intensity of fluorescence at the emission wavelength of the dye in hydrophobic surrounding, as imitated by dissolving the dye in methanol.
Increasing concentrations of lipid or drug were added to replace the dye in a dose-dependent fashion. Fluorescence values at 620 nm were corrected for basal fluorescence at 620 nm prior to protein addition as well as for dilution effects from adding increasing ligand concentrations. The starting fluorescence value minus the value at a given ligand concentration was plotted as % replacement.

| Emission [1] | Excitation [1] | Structure (SMILES) | other results |
| --- | --- | --- | --- |
| 640 nm | 550 nm | CCN(CC)c1ccc2nc3c4cc(O)ccc4c(=O)c(Br)c-3oc2c1 [compound 2] | – |
| 650 nm | 552 nm | CCN(CC)c1ccc2nc3c4ccc(O)cc4c(=O)c(Br)c-3oc2c1 [compound 4, 6-Bromo-9-diethylamino-3-hydroxy-benzo[a]phenoxazin-5-one] | – |
| 653 nm | 562 nm | CCN(CC)c1ccc2nc3c4ccc(O)c(Br)c4c(=O)c(Br)c-3oc2c1 [compound 5, 4,6-Dibromo-9-diethylamino-3-hydroxy-benzo[a]phenoxazin-5-one] | – |
| 650 nm | 556 nm | CCCCOc1ccc2c3nc4ccc(N(CC)CC)cc4oc-3c(Br)c(=O)c2c1 [compound 8] | Quantum Yield [1]: 0.35 |
| 631 nm | 544 nm | CCN(CC)c1ccc2nc3c4cc(OCCCC(=O)O)ccc4c(=O)cc-3oc2c1 [compound 11, nile red butyric acid] | water solubility (Water solubility): increased water solubility; binding of SCP2 to dye compared with BSA and MAO B [2]: weakest; change of fluorescence on titration with BSA ([3]; FIG. 1a (dye 0.25 μM) / FIG. 1b (dye 3 μM)): shift in the emission to a shorter wavelength and an increase in the intensity of the fluorescence; binding of BSA to dye compared with SCP2 and MAO B ([3]; dye 250 nM, FIG. 2b): strongest binding; wavelength of maximal emission intensity ([3]; in the absence of BSA): 657 nm; wavelength of maximal emission intensity ([3]; in the presence of BSA): 620 nm |

The next lines start with the compound.

| Structure (SMILES) | Emission [1] | Excitation [1] | other results |
| --- | --- | --- | --- |
| CCN(CC)c1ccc2nc3c4cc(O)ccc4c(=O)cc-3oc2c1 [compound 1] | 629 nm | 540 nm | – |
| CCN(CC)c1ccc2nc3c4cc(O)ccc4c(=O)c(Cl)c-3oc2c1 [compound 3] | 643 nm | 549 nm | – |
| CCN(CC)c1cc(C)c2nc3c4ccc(O)cc4c(=O)cc-3sc2c1 [compound 6, 9-Diethylamino-3-hydroxy-11-methyl-benzo[a]phenothiazin-5-one] | 665 nm | 580 nm | – |
| CCCCOc1ccc2c3nc4c(C)cc(N(CC)CC)cc4sc-3cc(=O)c2c1 [compound 7] | 664 nm | 585 nm | Quantum Yield [1]: 0.29 |
| CCN(CC)c1ccc2nc3c4ccccc4c(=O)cc-3oc2c1 [nile red] | – | – | quenching of fluorescence by cytochrome c (cytochrome c): strong quenching effect |
| N[C@@H](Cc1c[nH]c2ccccc12)C(=O)O [tryptophan] | – | – | release of dye from BSA (BSA; 2BrNR 250 nM, 5.54 μM BSA, 282.62 μM ligand, FIG. 5a): not able to release all the dye from BSA; release of dye from BSA (BSA; NRBA, 2 μM BSA, 1 mM ligand, FIG. 5b): not able to release all the dye from BSA; lipid binding sites of albumin occupied / dye molecules replaced (BSA; replacement of NRBA from 2 μM BSA, FIG. 4/5b): only replaced one molecule of the dye; also recorded: occupation of one binding site |
